Experimental data from patent US11285158B2, “Uses of pyrimidopyrimidinones as SIK inhibitors” (The General Hospital Corporation, priority 2017, dated 2022).

Experiments:
[1] = tested on: B16 cells; assay: In vitro MITF induction in B16 cells; assay type: cell-based, mouse; details: for maximal fold induction / EC50: Mus musculus, Table 5; for maximal fold induction: B16 cells, read-out: Highest fold mitf induction in B16 cells; for EC50: readout not given, presumably mitf induction in B16 cells; for Highest fold Mitf induction: Table 6, cells not given, same values as Table 5 (B16 cells)
Protocol: (§1) qPCR. mRNA was extracted from cells using the RNeasy Mini Kit (Qiagen®). KAPA SYBR® FAST Universal One-Step qRT-PCR Kit (KAPA BIOSYSTEMS®) was used to prepare mRNA samples for qPCR and samples were analyzed using the 7500 Fast Real Time PCR System (Applied Biosystems®). The relative expression of each gene was calculated by 7500 Fast System Software program, which utilizes Ct normalized to mRNA levels of RPL11 to calculate relative expression. Results are reported relative to control cells.
Tables 2 to 5 below show the effects of exemplary […] compounds on skin darkening, including an in vitro test of MITF induction following the same protocol as described above in paragraph 333, wherein exemplary SIK inhibitor compounds were tested for their in vitro induction of MITF.
(§2) Table 5 below additionally provides characteristics of exemplary SIK inhibitor compounds, MITF induction in B16 cells, EC50, log P, and experimental conditions for skin darkening experiments in mice and humans.

[2] = tested on: human breast skin explants; assay: Human skin explants: darkening/pigmentation after topical SIK inhibitor; assay type: cell-based; details: for Results (skin darkening): Human Skin Explants
Protocol: Image and Colorimeter analysis were conducted 24 hours after the last treatment.
Human pigmentation experiments. Full thickness human breast skin explants were cultured in petri dishes with a solid phase and liquid phase phenol red free DMEM medium with […], 5% fungizone (Gibco®), and 10% FBS. Passive application refers to simply applying the treatment to skin without further rubbing or manipulation. Mechanical application refers to application of agents to skin with further rubbing of treatment with 10 clockwise turns of a gloved cotton swab applicator. Skin was harvested, fixed, and processed for paraffin embedding. Sections were cut from paraffin blocks, and sections were stained utilizing hematoxylin and eosin (morphology) and Fontana-Masson (melanin).

[3] = tested on: mouse skin; assay: Skin darkening experiments in mice (Table 5); assay type: in vivo; details: HG-9-91-01: 2 days, 25 mM, HG-11-136-01: 12 days, HG-11-143-01: 12 days, 25 mM (4 days) −130 mM (8 days)
Protocol: Mouse pigmentation experiments. […] Daily differences in darkening of the skin were measured by reflective colorimetry. Skin was harvested, fixed, and processed for paraffin embedding. Sections were cut from paraffin blocks, and sections were stained utilizing hematoxylin and eosin (morphology) and Fontana-Masson (melanin). Melanin dissolution was conducted utilizing NaOH lysis method (Wakamatsu and Ito 2002).
as §2

[4] = tested on: normal human melanocytes, UACC62 melanoma cells, and UACC257 melanoma cells; assay: MITF and TRPM1 mRNA expression by qPCR; assay type: cell-based
Protocol: Cell Culture. UACC257 and UACC62 cells were grown in RPM1+1% penicillin and streptomycin+5% fetal bovine serum. Normal human melanocytes were grown in TIVA, and starved 24 hours in HAM's F-12+1% penicillin and streptomycin before all molecular experiments.
as §1

[5] = target: SIKs; assay: Kinase activity in vitro assay (biochemical IC50 against SIKs); parameters: species or system human; details: compared with HG 9-91-01 (FIG. 6)
Protocol: Kinase activity in vitro assay. The biochemical activities against SIK2 were measured by Caliper-based mobility shift assay (PerkinElmer®). […] Reactions were quenched by adding 20 mM EDTA (pH 8) after 1 hour, and percentage of substrate conversion was measured by LabChip EZ Reader II (PerkinElmer®). IC50's for SIK2 inhibition were calculated using SmartFit nonlinear regression in Genedata® Screener software suite (Genedata®).
All other in vitro kinase assay were conducted using the SelectScreen Kinase Profiling Service at Thermo Fisher Scientific® (Madison, Wis.). The protocols are available from Thermo Fisher Scientific® website.

[6] = Table 2, passive topical application

SMILES	maximal fold induction [1]	EC50 [1]	other results
COc1ccc(N2C(=O)N(c3c(C)cccc3C)Cc3cnc(Nc4ccc(N5CCN(C)CC5)cc4)nc32)nc1 [YKL-04-136-06]	26.9	0.009 µM	
COc1ccc(N2C(=O)N(c3c(C)cccc3C)Cc3cnc(Nc4ccc(N5CCOCC5)c(OC)c4)nc32)c(OC)c1 [YKL-04-115]	10.1	0.024 µM	
COc1ccc(N2C(=O)N(c3c(C)cccc3C)Cc3cnc(Nc4ccc(N5CCN(C)CC5)c(OC)c4)nc32)c(OC)c1 [YKL-04-114]	10.4	0.067 µM	
COc1ccc(N2C(=O)N(c3c(C)cccc3C)Cc3cnc(Nc4cc(CN5CCOCC5)cc(C(F)(F)F)c4)nc32)c(OC)c1 [YKL-04-118]	1.1	1420 µM	
CCN1CCN(Cc2ccc(Nc3ncc4c(n3)N(c3ccc(OC)cc3OC)C(=O)N(c3c(C)cccc3C)C4)cc2C(F)(F)F)CC1 [YKL-04-103]	10.2	0.001 µM	
COc1cc(N2CCN(C)CC2)ccc1Nc1ncc2c(n1)N(C)C(=O)N(c1ccccc1)C2 [HG-11-139-02]	5.76		Highest fold Mitf induction [1]: 5.76 fold
COc1ccc(N2C(=O)N(c3c(C)cccc3C)Cc3cnc(Nc4cnn(C5CCOCC5)c4)nc32)c(OC)c1 [YKL-04-105]	9.9	0.005 µM	
COc1ccc(N2C(=O)N(c3c(C)cccc3C)Cc3cnc(Nc4cc(C)c(OCCN5CCOCC5)c(C)c4)nc32)c(OC)c1 [YKL-04-107]	3.6	0.015 µM	
COc1ccc(N2C(=O)N(c3c(C)cccc3C)Cc3cnc(Nc4cc(N5CCOCC5)cc(N5CCN(C)CC5)c4)nc32)c(OC)c1 [HG-11-143-01]	6.8	0.057 µM	
COc1ccc(N2C(=O)N(c3c(C)cccc3Cl)Cc3cnc(Nc4ccc(N5CCN(C)CC5)cc4)nc32)c(OC)c1 [YKL-04-136-03]	6.2	0.025 µM	
COc1ccc(N2C(=O)N(c3c(C)cccc3C)Cc3cnc(Nc4cc(CN5CCN(C)CC5)cc(C(F)(F)F)c4)nc32)c(OC)c1 [YKL-04-125]	9.7	0.133 µM	
Cc1cccc(C)c1N1Cc2cnc(Nc3ccc(N4CCN(C)CC4)cc3)nc2N(C2CCC2)C1=O [YKL-06-060]			Results (skin darkening) [2, 6]: Darkens; Results (skin darkening) ([2]; Table 4): Darkens
COc1ccc(N2C(=O)N(c3c(C)cccc3C)Cc3cnc(Nc4cccc(OCCN5CCOCC5)c4)nc32)c(OC)c1 [YKL-04-106]	9	0.074 µM	
Cc1cccc(C)c1N1Cc2cnc3nc2N(C/C=C/COCc2cccc(c2)N3)C1=O [YKL-05-200-2]			Results (skin darkening) [2, 6]: Darkens; Results (skin darkening) ([2]; Table 4): Darkens
COc1ccc(N2C(=O)N(c3c(C)cccc3C)Cc3cnc(Nc4ccc(N5CCOCC5)c(C(F)(F)F)c4)nc32)c(OC)c1 [YKL-04-104]	8	0.021 µM	
COc1ccc(N(C(=O)Nc2c(C)cccc2C)c2cc(Nc3ccc(N4CCN(C)CC4)cc3)ncn2)c(OC)c1 [HG-9-91-01]		0.016 µM	Darkening (Mouse) [3]: Darkens
COc1ccc(N2C(=O)N(c3c(C)cccc3C)Cc3cnc(Nc4ccc(N5CCN(C)CC5)cc4)nc32)c(OC)c1 [HG-11-136-01]	6.1		Darkening (Mouse) [3]: Darkens
CN1CCN(c2ccc(Nc3ncc4c(n3)N(C)C(=O)N(c3ccccc3)C4)cc2)CC1 [HG-11-137-01]	4.82		Results (skin darkening) ([2]; Table 3): Darkens; Highest fold Mitf induction [1]: 4.82 fold

SMILES	maximal fold induction [1]	EC50 [1]	other results
COc1ccc(N2C(=O)N(c3c(C)cccc3C)Cc3cnc(Nc4cc(N5CCOCC5)cc(C(F)(F)F)c4)nc32)c(OC)c1 [YKL-04-113]	11.2	0.657 µM	
Cc1cccc(C)c1N1Cc2cnc(Nc3ccc(N4CCN(C)CC4)cc3)nc2N(C2CCCCC2)C1=O [YKL-06-062, 1-cyclohexyl-3-(2,6-dimethylphenyl)-7-(4-(4-methylpiperazin-1-yl)phenylamino)-3,4-dihydropyrimido[4,5-d]pyrimidin-2(1H)-one]			Mitf expression ([4]; UACC62 and UACC257 melanoma cells (FIG. 7)): induces Mitf expression; TRPM1 mRNA levels (MITF gene target) ([4]; delayed relative to MITF induction, 4 uM, over 24 hours): increased; MITF mRNA expression ([4]; normal human melanocytes, UACC62 and UACC257 cells, 3 hours of treatment, relative to RPL11): dose dependent increase; Induction of the pigmentation pathway compared with HG 9-91-01 ([4]; normal human melanocytes, Mitf and TRPM1 mRNA (FIG. 4)): as efficacious in inducing the pigmentation pathway as HG 9-91-01; IC50 values for inhibition of SIKs [5]: comparable; Results (skin darkening) [2, 6]: Darkens; Results (skin darkening) ([2]; Table 4): Darkens; Gross pigmentation of human skin explants ([2]; passive topical application, 37.5 mM, 8 days (1×/day)): induced significant pigmentation; Melanin content, Fontana Masson staining ([2]; passive topical application, 37.5 mM, 8 days, compared to control): increased melanin content
COc1ccc(N2C(=O)N(c3c(C)cccc3C)Cc3cnc(Nc4cnn(CCN(C)C)c4)nc32)c(OC)c1 [YKL-04-136-02]	16.1	0.021 µM	
Cc1cccc(C)c1N1Cc2cnc(Nc3ccc(N4CCN(C)CC4)cc3)nc2N(C(C)C)C1=O [YKL-06-058]			Results (skin darkening) [2, 6]: Darkens; Results (skin darkening) ([2]; Table 4): Darkens
COc1ccc(N2C(=O)N(c3c(C)cccc3C)Cc3cnc(Nc4ccc(CN5CCN(C)CC5)cc4)nc32)nc1 [YKL-04-136-10]	16.3		Highest fold Mitf induction [1]: 16.28 fold
Cc1cccc(Cl)c1N1Cc2cnc3nc2N(C/C=C\CCOc2cccc(c2)N3)C1=O [YKL-05-201-1]			Results (skin darkening) [2, 6]: Darkens; Results (skin darkening) ([2]; Table 4): Darkens
COc1cc(N2CCN(C(C)=O)CC2)ccc1N1C(=O)N(c2c(C)cccc2C)Cc2cnc(Nc3cnn(CCN(C)C)c3)nc21 [YKL-04-136-07]	2.4	0.127 µM	
COc1ccc(N2C(=O)N(c3c(C)cccc3C)Cc3cnc(Nc4ccc(CCCN5CCOCC5)cc4)nc32)c(OC)c1 [YKL-04-108]	13.9	0.014 µM	Results (skin darkening) ([2]; Table 3): Darkens
COc1ccc(N2C(=O)N(c3c(C)cccc3C)Cc3cnc(Nc4cnn(CCN(C)C)c4)nc32)nc1 [YKL-04-136-08]	4.1	0.014 µM	
Cc1cccc(C)c1NC(=O)N1C/C=C\COc2cccc(c2)Nc2cc1ncn2 [HG-10-32-01]	2.4		Highest fold Mitf induction [1]: 2.4 fold
COc1cc(N2CCN(C(C)=O)CC2)ccc1N1C(=O)N(c2c(C)cccc2C)Cc2cnc(Nc3ccc(CN4CCN(C)CC4)cc3)nc21 [YKL-04-136-11]	9.58		Highest fold Mitf induction [1]: 9.58 fold
Cc1cccc(C)c1N1Cc2cnc(Nc3ccc(N4CCN(C)CC4)cc3)nc2N(C)C1=O [YKL-06-29]			Results (skin darkening) [2, 6]: Darkens; Results (skin darkening) ([2]; Table 4): Darkens
COc1ccc(N2C(=O)N(c3c(C)cccc3C)Cc3cnc(Nc4cc(N5CCN(C)CC5)cc(C(F)(F)F)c4)nc32)c(OC)c1 [YKL-04-112]	5.2	0.215 µM	
COc1cc(N2CCN(C(C)=O)CC2)ccc1N1C(=O)N(c2c(C)cccc2C)Cc2cnc(Nc3ccc(N4CCN(C)CC4)cc3)nc21 [YKL-04-136-05]	8.9	0.042 µM	
Cc1cccc(C)c1N1Cc2cnc3nc2N(C/C=C\COc2cc(ccc2N2CCN(C)CC2)N3)C1=O [YKL-05-204-1]			Results (skin darkening) [2, 6]: Darkens; Results (skin darkening) ([2]; Table 4): Darkens
COc1ccc(N2C(=O)N(c3c(C)cccc3C)Cc3cnc(Nc4ccc(CN5CCN(C)CC5)cc4)nc32)c(OC)c1 [YKL-04-136-01]	9.7	0.053 µM	
Cc1cccc(C)c1N1Cc2cnc3nc2N(C/C=C/COc2cc(ccc2N2CCN(C)CC2)N3)C1=O [YKL-05-204-2]			Results (skin darkening) [2, 6]: Darkens; Results (skin darkening) ([2]; Table 4): Darkens
COc1ccc(N2C(=O)N(c3c(C)cccc3Cl)Cc3cnc(Nc4cnn(CCN(C)C)c4)nc32)c(OC)c1 [YKL-04-136-04]	9.2	0.015 µM	
